The subject of assay [1] is U-251. Nature of the assay: Cytotoxicity against human U-251MG cells assessed as reduction in cell viability measured after 48 hrs by alamar blue assay. The format is functional, cell-based. The following applies: U-251, 48 h. In general terms: The colour change of resazurin is a common sign of viable cells or microbes.
Assay [2] has as its system U-251. The experiment in a line: Cytotoxicity against cold atmospheric plasma (CAP)-treated human U-251MG cells assessed as decrease in cell viability treated with CAP for 30 secs followed by incubated with compound for 48 hrs by alamar blue assay. The format is functional, cell-based. The following applies: U-251, 48 h.
Assay [3] concerns U-251. Nature of the assay: Cytotoxicity against human U-251MG cells assessed as decrease in cell viability incubated for 6 days by alamar blue assay. In kind it is functional, cell-based. The following applies: U-251, 144 h.
Assay [4] relates to U-251. Nature of the assay: Cytotoxicity against cold atmospheric plasma (CAP)-treated human U-251MG cells assessed as decrease in cell viability treated with CAP for 15 secs followed by incubated with compound for 6 days by alamar blue assay. In kind it is functional, cell-based. The following applies: U-251, 144 h.
Assay [5] deals with U-251. The experiment in a line: Cytotoxicity against cold atmospheric plasma (CAP)-treated human U-251MG cells assessed as decrease in cell viability treated with CAP for 30 secs followed by incubated with compound for 6 days by alamar blue assay. The following applies: U-251, 144 h. The format is functional, cell-based.
In assay [6] the test system is U-251. Nature of the assay: Prodrug activation in human U-251MG cells assessed as enhancement of cytotoxicity pretreated with prodrug followed by cold atmospheric plasma (CAP) treatment for 10 to 40 sec in culture medium and measured after 48 hrs by alamar blur assay. In kind it is functional, cell-based.
Assay [7] relates to U-251. The experiment in a line: Cytotoxicity against human U-251MG cells assessed as decrease in cell viability by measuring combination index treated with cold atmospheric plasma for 10 secs followed by incubated with compound for 48 hrs by alamar blue assay. In kind it is functional.
Assay [8] relates to U-251. The experiment in a line: Cytotoxicity against human U-251MG cells assessed as reduction in cell viability at 0.3 uM measured after 48 hrs by alamar blue assay relative to control. In kind it is functional.
For assay [9], the system named is U-251. The experiment in a line: Cytotoxicity against human U-251MG cells assessed as reduction in cell viability at 290 uM measured after 48 hrs by alamar blue assay relative to control. The format is functional.
Assay [10] deals with U-251. The experiment in a line: Cytotoxicity against human U-251MG cells assessed as reduction in cell viability at 2000 uM measured after 48 hrs by alamar blue assay relative to control. The format is functional.
The test system of assay [11] is U-251. The experiment in a line: Cytotoxicity against human U-251MG cells assessed as decrease in live cells stained with green (Calcein-AM) at 0.3 to 2000 uM measured after 48 hrs by Live/dead staining based fluorescent analysis. In kind it is functional, cell-based. Particulars: dose 0.3-2000 µM.
In assay [12] the test system is U-251. The experiment in a line: Cytotoxicity against human U-251MG cells assessed as increase in dead cells stained with red (EthD-1) at 0.3 to 2000 uM measured after 48 hrs by Live/dead staining based fluorescent analysis. In kind it is functional, cell-based. Particulars: dose 0.3-2000 µM.
Assay [13] relates to U-251. Nature of the assay: Cytotoxicity against human U-251MG cells assessed as distinct morphological changes at 0.3 to 2000 uM measured after 48 hrs by Live/dead staining based fluorescent analysis. The format is functional, cell-based. Particulars: dose 0.3-2000 µM.
Assay [14] concerns HEK293. The experiment in a line: Cytotoxicity against human HEK293 cells assessed as reduction in cell viability measured after 48 hrs by alamar blue assay. The format is functional, cell-based. Particulars: HEK293, 48 h.
Assay [15] is described as follows: Prodrug activation in human U-251MG cells assessed as increase in cold atmospheric plasma (CAP) induced ROS-mediated cytotoxicity treated with CAP for 30 secs in DMSO followed by incubated with compound for 48 hrs by alamar blue assay. The format is functional, cell-based. Particulars: U-251, 48 h.
Assay [16] in a line: Prodrug activation in human U-251MG cells assessed as increase in cold atmospheric plasma (CAP) induced ROS-mediated cytotoxicity treated with CAP for 10 mins in DMSO followed by incubated with compound for 48 hrs by alamar blue assay. In kind it is functional, cell-based.
The nature of assay [17]: Prodrug activation in human U-251MG cells assessed as increase in cold atmospheric plasma (CAP) induced ROS-mediated cytotoxicity treated with CAP for 10 secs followed by incubated with compound for 48 hrs by alamar blue assay. Particulars: U-251, 48 h. In kind it is functional, cell-based.
The nature of assay [18]: Prodrug activation in human U-251MG cells assessed as increase in cold atmospheric plasma (CAP) induced ROS-mediated cytotoxicity treated with CAP for 20 secs followed by incubated with compound for 48 hrs by alamar blue assay. The format is functional, cell-based. Particulars: U-251, 48 h.
Assay [19] in a line: Prodrug activation in human U-251MG cells assessed as increase in cold atmospheric plasma (CAP) induced ROS-mediated cytotoxicity treated with CAP for 30 secs followed by incubated with compound for 48 hrs by alamar blue assay. The format is functional, cell-based. Particulars: U-251, 48 h.
Assay [20] can be described thus: Prodrug activation in human U-251MG cells assessed as increase in cold atmospheric plasma (CAP) induced ROS-mediated cytotoxicity treated with CAP for 40 secs followed by incubated with compound for 48 hrs by alamar blue assay. In kind it is functional, cell-based. Particulars: U-251, 48 h.
A short description of assay [21]: Prodrug activation in human U-251MG cells assessed as increase in cold atmospheric plasma (CAP) induced ROS-mediated cytotoxicity treated with CAP for 40 secs followed by incubated with compound for 48 hrs in presence of NAC by alamar blue assay. The following applies: U-251, 48 h. The format is functional, cell-based.
Assay [22] deals with U-251. The experiment in a line: Prodrug activation in human U-251MG cells assessed as cell cytotoxicity treated with prodrug in overnight storage cold atmospheric plasma (CAP) activated culture medium for 48 hrs by Alamar blue assay. In kind it is functional, cell-based.
Assay [23] relates to U-251. The experiment in a line: Prodrug activation in CAP treated human U-251MG cells assessed as cell cytotoxicity incubated with cold atmospheric plasma (CAP) treated culture medium for 0 to 5 hrs followed by incubation with fresh medium containing prodrug for 48 hrs by Alamar blue assay. In kind it is functional, cell-based.
Assay [24] can be described thus: Prodrug activation in human U-251MG cells assessed as decrease in cell viability at low concentrations in presence of AAPH measured after 48 hrs by Alamar blue assay. In kind it is functional.
Assay [25] can be described thus: Prodrug activation in human HEK293 cells assessed as decrease in cell viability at low concentrations in presence of AAPH measured after 48 hrs by Alamar blue assay. In kind it is functional.
In assay [26] the test system is U-251. The experiment in a line: Prodrug activation in human U-251MG cells assessed as enhancement of cytotoxicity at >200 uM in presence of 3 mM AAPH measured after 48 hrs by Alamar blue assay. In kind it is functional, cell-based. Particulars: dose microM >200, time 48.0 hrs.
Assay [27] deals with HEK293. The experiment in a line: Prodrug activation in human HEK293 cells assessed as enhancement of cytotoxicity at >200 uM in presence of 3 mM AAPH measured after 48 hrs by Alamar blue assay. In kind it is functional, cell-based. Particulars: dose microM >200, time 48.0 hrs.
Assay [28] relates to U-251. Nature of the assay: Prodrug activation in human U-251MG cells assessed as enhancement of cytotoxicity at >200 uM combined with 0.5 mMAAPH measured after 48 hrs by Alamar blue assay. In kind it is functional, cell-based. Particulars: dose microM >200, time 48.0 hrs.
The test system of assay [29] is HEK293. Nature of the assay: Prodrug activation in human HEK293 cells assessed as enhancement of cytotoxicity at >200 uM combined with 0.5 mM AAPH measured after 48 hrs by Alamar blue assay. The format is functional, cell-based. Particulars: dose microM >200, time 48.0 hrs.
Assay [30] has as its system U-251. The experiment in a line: Cytotoxicity against human U-251MG cells assessed as decrease in cell viability by measuring combination index treated with cold atmospheric plasma for 20 secs followed by incubated with compound for 48 hrs by alamar blue assay. In kind it is functional.
The subject of assay [31] is U-251. The experiment in a line: Cytotoxicity against human U-251MG cells assessed as decrease in cell viability by measuring combination index treated with cold atmospheric plasma for 30 secs followed by incubated with compound for 48 hrs by alamar blue assay. In kind it is functional.
Assay [32] deals with U-251. Nature of the assay: Cytotoxicity against human U-251MG cells assessed as decrease in cell viability by measuring combination index treated with cold atmospheric plasma for 40 secs followed by incubated with compound for 48 hrs by alamar blue assay. In kind it is functional.

Data on 16 molecules can be found in ChEMBL document CHEMBL4842349, “Enhanced pyrazolopyrimidinones cytotoxicity against glioblastoma cells activated by ROS-Generating cold atmospheric plasma” (Eur J Med Chem, 2021).

Calls of active or inactive are those of the source. No cut-off for these calls is given here.

`CC(C)c1cc2[nH]c(-c3cc(C(F)(F)F)cc(C(F)(F)F)c3)cc(=O)n2n1`: the IC50 (usually the concentration that inhibits the measured activity by half) came out at 42.9 µM with U-251 [1] and 19 µM with U-251 [2].
`CCCCc1cc2[nH]c(-c3cc(C(F)(F)F)cc(C(F)(F)F)c3)cc(=O)n2n1`: the figures for the IC50 with U-251 [1] and in the assay on U-251 [2] were 11.3 µM and 11.4 µM, respectively.
For `O=c1cc(-c2ccccc2)[nH]c2cc(-c3ccc(F)cc3)nn12`, the IC50 in the assay on U-251 [1] came out at 74.6 µM; with U-251 [2] it was 44.4 µM.
In the case of `Cc1c(-c2ccccc2)[nH]c2cc(C(C)C)nn2c1=O`, the IC50 with U-251 [1] amounted to 137 µM; in the assay with U-251 [2] it was 86.3 µM.
As to `O=c1cc(-c2ccccc2)[nH]c2cc(-c3cccc(Cl)c3)nn12`, the IC50 was 23.3 µM with U-251 [1] and 38.2 µM with U-251 [2].
`Cc1ccc(-c2cc3[nH]c(-c4ccccc4)cc(=O)n3n2)cc1`: the IC50 with U-251 [1] was determined as 148 µM; in the assay with U-251 [2], 86.7 µM.
As to `Cn1nnc2c(C(N)=O)ncn2c1=O` [TEMOZOLOMIDE], the figures for the IC50 with U-251 [3], in the assay with U-251 [4] and with U-251 [5] were 12.7 µM, 7.28 µM and 6.43 µM, respectively.
As to `Cc1cc(C)cc(-c2cc(=O)n3nc(C(C)C)cc3[nH]2)c1`, the IC50 amounted to 502 µM in the assay on U-251 [1] and 609 µM in the assay with U-251 [2].
Regarding `Cc1cc(C)cc(-c2cc(=O)n3nc(C)cc3[nH]2)c1`, the result with U-251 [6] was inactive.
As for `O=c1cc(-c2ccccc2)[nH]c2cc(-c3ccccc3)nn12`, the IC50 in the assay on U-251 [1] worked out at 77.7 µM; in the assay on U-251 [2], 73.6 µM.
Take `COc1ccc(-c2cc(=O)n3nc(-c4ccccc4)cc3[nH]2)cc1`: the IC50 in the assay with U-251 [1] is 13.4 µM; in the assay with U-251 [2], 5670 µM.
The like results for `CC(C)(C)c1cc2[nH]c(-c3cc(C(F)(F)F)cc(C(F)(F)F)c3)cc(=O)n2n1` were, in that order, 367 µM and 462 µM.
Consider `CC(C)c1cc2[nH]c(-c3ccc([N+](=O)[O-])cc3)cc(=O)n2n1`, for which the IC50 with U-251 [1] came out at 25.5 µM; in the assay on U-251 [2], 12.9 µM.
Take `CC(C)(C)c1cc2[nH]c(C(C)(C)C)cc(=O)n2n1`: the IC50 in the assay with U-251 [1] is 941 µM; in the assay with U-251 [2], 62.4 µM.
Take `Cc1cc2[nH]c(-c3ccccc3)cc(=O)n2n1`: the CI in the assay with U-251 [7] came to 0.311; with U-251 [30], 0.3352; in the assay with U-251 [31], 0.4756; in the assay on U-251 [32] it was 0.578. Moreover, the IC50 came out at 293 µM in the assay on U-251 [1]; 56.8 µM in the assay on U-251 [2]; 123 µM in the assay with HEK293 [14]; 215 µM in assay [15]; 246 µM in assay [16]; 54.4 µM in [17]. In addition, the IC50 amounted to 31.1 µM in assay [18], 39.2 µM in assay [19], 37.1 µM in [20] and 95.7 µM in assay [21]. In addition, the Activity came to 100% in the assay with U-251 [8]; 50% in the assay on U-251 [9]; 10% with U-251 [10]; 50% in assay [24]; 50% in assay [25]. Also, the outcome in the assay on U-251 [11], with U-251 [12] and in the assay with U-251 [13] was Active. Moreover, the outcome with U-251 [22], in the assay on U-251 [23], with U-251 [26], with HEK293 [27], in the assay with U-251 [28] and with HEK293 [29] was inactive.
As for `COc1ccc(-c2cc(=O)n3nc(C(C)C)cc3[nH]2)cc1`, the IC50 is 197 µM in the assay with U-251 [1] and 127 µM in the assay with U-251 [2].
